From patent publication US10100088B2, “Glycopeptide derivatives for the preservation and protection of biological materials and microorganisms” (TFCHEM, priority 2014, dated 2018)
“Also recorded” adds a separate entry of the source.

Experiments:
[1] = test system: human neonatal skin fibroblasts (CCD-27SK, ATCC CRL-1475); test: Starvation (serum deprivation) stress, neutral red uptake viability; format: cell-based; details: for preservative/protective effect on skin fibroblasts (in words): starvation medium
Protocol: Induced stresses were performed as follow: Starvation
The neutral red uptake assay was used for the determination of cell viability. This assay is based on the ability of viable cells to incorporate and bind the supravital dye neutral red in its lysosomes. So, only the viable cells are dyed. At different times after the stress assay (T0), the plates were incubated with neutral red solution for 3.5 hours. The cells are subsequently washed, the dye is extracted in each well and the absorbance is read using a spectrophotometer.
For sampling, 1 mL of DMEM (without phenol red indicator) with neutral red (OD=0.110) was added to the cells for 3.5 hours (37° C., 10% CO2). After incubation, the medium was removed, two washes of PBS were realized and 1 mL of extraction solution (absolute ethanol 49%, ultrapure water 49%, glacial acetic acid 2%) was added. Plates were placed 15 minutes on rotary shaker in the dark before reading OD at 540 nm.
The OD540 nm average value of positive control was considered as 100% of viability.
The percentage of viability for each assay was calculated as follow: % viability assay=(OD540 nm of tested solution−blank)*100/(OD540 nm of positive control−blank).

[2] = Comparative stability towards basic conditions (NaOD in D2O), 1H NMR; format: physicochemical
Protocol: In a first set of experiments (experiments 1 to 7 in table 9), X (10 mg, 1.72 10^−2 mmol) was reacted with 2 to 8 equivalents of NaOD in a total volume of 355 μL of deuterium oxide ([X]=4.8 10^−2 mmol·mL^−1) during 2 h 30 before being acidified with 1M DCl in D2O. To be sure that all compounds in solution are in their acidic form, the equivalents of DCl are adjusted to 3 more equivalents of DCl than the amount required to neutralize the solution (nDCl=nNaOD+3). The volume was adjusted to 544 μL with deuterium oxide.
In a second set of experiments (experiments 8 to 14 in table 9), 17 (10 mg, 1.66 10^−2 mmol) was reacted with 2 to 8 equivalents of NaOD in a total volume of 343 μL of deuterium oxide ([17]=4.8 10^−2 mmol·mL^−1) during 2 h 30 before being acidified with 1M DCl in D2O. To be sure that all compounds in solution are in their acidic form, the equivalents of DCl are adjusted to 3 more equivalents of DCl than the amount required to neutralize the solution (nDCl=nNaOD+3). The volume was adjusted to 526 μL with deuterium oxide.
^1H NMR analyses were performed on each experiment. It is why experiments were realized in deuterium oxide and using 1M NaOD in D2O as base and 1M DCl in D2O as acid.
^1H NMR allows indeed the determination of the amount of compound X1 formed, by comparison between the integration corresponding to the methylene group of the lysine side chain connected to the nitrogen atom in X (CH2NGP) (3.3 ppm) and the integrationof the same methylene group in X1 (CH2Lys hydrolyzed) (3.0 ppm).
To confirm the structure of compounds X1 and X2, resulting from hydrolysis of X, the following experiment was realized, in which X (10 mg, 1.72 10^−2 mmol) was reacted with 8 equivalents of NaOD in a total volume of 355 μL of deuterium oxide ([X]=4.8 10^−2 mmol·mL^−1) during 3 days before being acidified with 1M DCl in D2O. In these conditions, almost the totality of compound X is hydrolyzed, the percentage of hydrolysis of compound X being 85% as determined by ^1H NMR as evidence in table 11.

[3] = D4 after serum deprivation, 10 mg/mL, positive control with 5% FBS (Table 3)
[4] = D8 after serum deprivation, 10 mg/mL, positive control with 5% FBS (Table 3)

Structure (SMILES): CC(=O)O.CC(=O)O.C[C@H](NC(=O)[C@H](C)NC(=O)[C@@H](N)CCCCNCC(F)(F)C1(O)O[C@H](CO)[C@H](O)[C@H](O)[C@H]1O)C(=O)O (stereo partly drawn) [Compound 20]
- Percentage of viability ([1]; D 1 after serum deprivation, 5 mg/mL (Table 2)): 87%
- Percentage of viability ([1]; D 4 after serum deprivation, 5 mg/mL (Table 2)): 63%
- Percentage of viability ([1]; D 7 after serum deprivation, 5 mg/mL (Table 2)): 50%
- preservative/protective effect on skin fibroblasts (in words) [1]: significant preservative/protective effect

Structure (SMILES): C[C@H](NC(=O)[C@@H](N)CCCCNCC(F)(F)C1(O)O[C@H](CO)[C@H](O)[C@H](O)[C@H]1O)C(=O)O.Cl.Cl (stereo partly drawn) [Compound 22]
- Percentage of viability ([1]; D4 after serum deprivation, 10 mg/mL (Table 4)): 93%
- preservative/protective effect on skin fibroblasts (in words) [1]: significant preservative/protective effect

Structure (SMILES): Cl.Cl.N[C@@H](CCCCNCC(F)(F)C1(O)O[C@H](CO)[C@H](O)[C@H](O)[C@H]1O)C(=O)NCC(=O)NCC(=O)O (stereo partly drawn) [Compound 24]
- Percentage of viability [1, 3]: 99 ± 3.35%
- Percentage of viability [1, 4]: 95 ± 1.60%
- preservative/protective effect on skin fibroblasts (in words) [1]: significant preservative/protective effect

Structure (SMILES): C[C@H](NC(=O)[C@@H](N)CCCCNCC(F)(F)C1(O)O[C@H](CO)[C@H](O)[C@H](O)[C@H]1O)C(=O)NCC(=O)O.Cl.Cl (stereo partly drawn) [Compound 26]
- Percentage of viability [1, 3]: 89 ± 1.21%
- Percentage of viability [1, 4]: 64 ± 2.78%
- preservative/protective effect on skin fibroblasts (in words) [1]: significant preservative/protective effect

Structure (SMILES): C[C@H](NC(=O)CNC(=O)[C@@H](N)CCCCNCC(F)(F)C1(O)O[C@H](CO)[C@H](O)[C@H](O)[C@H]1O)C(=O)O.Cl.Cl (stereo partly drawn) [Compound 28]
- Percentage of viability [1, 3]: 109 ± 2.05%
- Percentage of viability [1, 4]: 108 ± 3.40%
- preservative/protective effect on skin fibroblasts (in words) [1]: significant preservative/protective effect

Structure (SMILES): C[C@H](NC(=O)[C@H](C)NC(=O)[C@@H](N)CCCNCC(F)(F)C1(O)O[C@H](CO)[C@H](O)[C@H](O)[C@H]1O)C(=O)O.Cl.Cl (stereo partly drawn) [Compound 30]
- Percentage of viability [1, 3]: 92 ± 1.2%
- Percentage of viability [1, 4]: 74 ± 0.5%
- preservative/protective effect on skin fibroblasts (in words) [1]: significant preservative/protective effect

Structure (SMILES): C[C@H](NC(=O)[C@@H](N)CCCCNCC(F)(F)C1(O)O[C@H](CO)[C@H](O)[C@H](O)[C@H]1O)C(=O)N1CCC[C@H]1C(=O)O.Cl.Cl (stereo partly drawn) [Compound 34]
- Percentage of viability [1, 3]: 103 ± 1%
- Percentage of viability [1, 4]: 103 ± 2%
- preservative/protective effect on skin fibroblasts (in words) [1]: significant preservative/protective effect

Structure (SMILES): C[C@H](N)C(=O)N[C@@H](CCCCNCC(F)(F)C1(O)O[C@H](CO)[C@H](O)[C@H](O)[C@H]1O)C(=O)N[C@@H](C)C(=O)O.Cl.Cl (stereo partly drawn) [Compound 38]
- Percentage of viability [1, 3]: 101 ± 3%
- Percentage of viability [1, 4]: 88 ± 3%
- preservative/protective effect on skin fibroblasts (in words) [1]: significant preservative/protective effect

Structure (SMILES): Cl.Cl.N[C@@H](CCCCNCC(F)(F)C1(O)O[C@H](CO)[C@H](O)[C@H](O)[C@H]1O)C(=O)O (stereo partly drawn) [Compound 44]
- Percentage of viability [1, 3]: 111 ± 2.9%
- Percentage of viability [1, 4]: 102 ± 1.3%
- preservative/protective effect on skin fibroblasts (in words) [1]: significant preservative/protective effect

Structure (SMILES): C[C@H](NC(=O)[C@H](C)NC(=O)[C@@H](N)CCCCNC(=O)C(F)(F)[C@]1(O)O[C@H](CO)[C@H](O)[C@H](O)[C@H]1O)C(=O)O [Compound X]
- % hydrolyzed ([2]; 2 eq NaOD, 2 h 30, D2O): 2.0%
- stability towards basic conditions (in words) ([2]; 2 to 8 eq NaOD, 2 h 30, 1H NMR): degradation; also recorded: sensitive to basic medium
- % hydrolyzed ([2]; 3 eq NaOD, 2 h 30, D2O): 4.8%
- % hydrolyzed ([2]; 4 eq NaOD, 2 h 30, D2O): 13.0%
- % hydrolyzed ([2]; 5 eq NaOD, 2 h 30, D2O): 16.0%
- % hydrolyzed ([2]; 6 eq NaOD, 2 h 30, D2O): 19.0%
- % hydrolyzed ([2]; 7 eq NaOD, 2 h 30, D2O): 20.6%
- % hydrolyzed ([2]; 8 eq NaOD, 2 h 30, D2O): 22.2%
- % hydrolyzed ([2]; 8 eq NaOD, 2 h 30, D2O, listed as compound X): 22%
- % hydrolyzed ([2]; Control, 0 eq NaOD): 0.5%
- % hydrolysis ([2]; Experiment A, 0 eq NaOD (Table 11)): 0.5%
- % hydrolysis ([2]; Experiment B, 8 eq NaOD, 3 days, D2O): 85%
